Measurements published in article PMC11563544 (Journal of Cerebral Blood Flow & Metabolism, 2024).

System: alpha-2C adrenergic receptor (α2CR)
Experiment: in vivo PET receptor occupancy, competition with […]ORM-13070
Set-up: species or system Macaca fascicularis

EC50: 0.03339 ± 0.01191 µg/mL
Substance: BAY 292
